Read-outs that look alike come from different tables or passages of the source.
Experiments:
[1] = 24-well, 48 hours
Procedure: In this example 0.8 mm media was used.
(§1) Naproxen and hydroxypropyllcellulose (HPC-SL) as a surface stabilizer were combined at a drug:stabilizer ratio of 4:1. Samples of the composition and grinding media, as shown in the table below, were added to the wells of a 24-well microplate One well was used for each condition. The microplate was then agitated at the maximum sustainable speed using an orbital shaking platform driven by a standard laboratory magnetic stirring device. After 48 hours the average particle size of naproxen was estimated by light microscopy.

[2] = 48-well, 0.5 g 0.8 mm media, 0.125 ml slurry, HPC-SL 4:1, 48 hours
Procedure: as §1, with “48-well microplate.” for “24-well microplate”, “hours,” for “hours”

COc1ccc2cc([C@H](C)C(=O)O)ccc2c1 [Naproxen]
Average Particle Size of Naproxen ([1]; 0.25 mg drug, 1 g 0.8 mm media, 0.25 ml slurry, HPC-SL 4:1): <1 μm,
Average Particle Size of Naproxen ([1]; 0.5 mg drug, 2 g 0.8 mm media, 0.5 ml slurry, HPC-SL 4:1): <1 μm,
Average Particle Size of Naproxen ([1]; 1.25 mg drug, 1 g 0.8 mm media, 0.25 ml slurry, HPC-SL 4:1): <1 μm,
Average Particle Size of Naproxen ([1]; 2.5 mg drug, 1 g 0.8 mm media, 0.25 ml slurry, HPC-SL 4:1): <0.5 μm
Average Particle Size of Naproxen ([1]; 5 mg drug, 1 g 0.8 mm media, 0.25 ml slurry, HPC-SL 4:1): <0.5 μm
Average Particle Size of Naproxen ([1]; 10 mg drug, 2 g 0.8 mm media, 0.5 ml slurry, HPC-SL drug:stabilizer 4:1): <0.5 μm
Average Particle Size ([2]; 0.125 mg drug): <1 μm
Average Particle Size ([2]; 0.625 mg drug): <1 μm
Average Particle Size ([2]; 1.25 mg drug): <0.5 μm
Average Particle Size ([2]; 2.5 mg drug): <0.5 μm
